Laboratory results as given in patent publication US20230406912A1, “HUMANISED ANTIBODIES AGAINST PATHOGENIC FUNGI” (priority 2020, published 2023).

Experiments:
[1] = test system: C. auris; test: EUCAST antifungal MIC assay, drug alone and combined with hmAb 2G8; type: cell-based; conditions: drug alone
Experimental: To evaluate the susceptibility of C. auris to caspofungin, amphotericin B and their combination with hmAb 2G8, we followed the EUCAST antifungal MIC method (EUCAST E.DEF. 7.3). Antifungal drugs were purchased from Sigma-Aldrich.
The caspofungin and amphotericin B range concentrations analysed were reported in EUCAST document. Those concentrations were tested alone and in combination with 0.25, 2.5, 25 and 250 μg/ml of humanised antibody.
The plates microdilution and the yeast inoculum were prepared as reported in EUCAST document. The wells with 100 μl of 2X final antifungal drugs concentration in RPMI 2% G medium were inoculated with 100 μl (1-5×10^5 CFU/ml) of yeast suspension of C. auris. The monoclonal antibody was added to the samples of yeast suspension to test the combination drug-antibody. The plates were incubated at 37° C. for 24 and 48 hours and read after incubation at 405 nm. The assays were performed in triplicate.
As reported in EUCAST, echinocandins' MIC50 is the lowest drug concentration giving inhibition of≥50% of that of the drug-free control (dotted line). For amphotericin B, MIC50 is the same as for echinocandins while MIC90 is considered as the lowest concentration giving a growth inhibition of≥90% of that of the drug-free control (dotted bold line). […] At 48 hours (D), amphotericin B alone has its MIC50 and 90 at 1 μg/ml.

[2] = test system: C. auris; test: Time-kill curve, drug alone and combined with hmAb 2G8; type: cell-based
Source text: To support and deepen the data coming from MIC assays, a time-kill curve was elaborated to evaluate how the hmAb 2G8 combined with caspofungin or amphotericin B could improve their basal activity on C. auris.

[3] = test system: C. auris; conditions: different C. auris strains, literature; cited from earlier work

C[C@@H]1[C@H](O)[C@@H](C)/C=C/C=C/C=C/C=C/C=C/C=C/C=C/[C@H](O[C@@H]2O[C@H](C)[C@@H](O)[C@H](N)[C@@H]2O)C[C@@H]2O[C@](O)(C[C@@H](O)C[C@@H](O)[C@H](O)CC[C@@H](O)C[C@@H](O)CC(=O)O[C@H]1C)C[C@H](O)[C@H]2C(=O)O [amphotericin B]
MIC50 ([1]; 24 hours): 0.5 µg/mL
MIC90 ([1]; 24 hours): 0.5 µg/mL
MIC50 ([1]; 48 hours): 1 µg/mL
MIC90 ([1]; 48 hours): 1 µg/mL
log growth decrease (time-kill curve) ([2]; AMB 0.03125 μg/ml, 0 h): 0.01 Log
log growth decrease (time-kill curve) ([2]; AMB 0.03125 μg/ml, 2 h): 0.05 Log
log growth decrease (time-kill curve) ([2]; AMB 0.03125 μg/ml, 4 h): −0.19 Log
log growth decrease (time-kill curve) ([2]; AMB 0.03125 μg/ml, 6 h): −0.62 Log
log growth decrease (time-kill curve) ([2]; AMB 0.03125 μg/ml, 8 h): −1.04 Log
log growth decrease (time-kill curve) ([2]; AMB 0.03125 μg/ml, 24 h): −2.65 Log
log growth decrease (time-kill curve) ([2]; AMB 0.03125 μg/ml, 48 h): −2.85 Log
log growth decrease (time-kill curve) ([2]; AMB 0.0625 μg/ml, 0 h): 0.00 Log
log growth decrease (time-kill curve) ([2]; AMB 0.0625 μg/ml, 2 h): 0.07 Log
log growth decrease (time-kill curve) ([2]; AMB 0.0625 μg/ml, 4 h): −0.14 Log
log growth decrease (time-kill curve) ([2]; AMB 0.0625 μg/ml, 6 h): −0.59 Log
log growth decrease (time-kill curve) ([2]; AMB 0.0625 μg/ml, 8 h): −0.97 Log
log growth decrease (time-kill curve) ([2]; AMB 0.0625 μg/ml, 24 h): −2.59 Log
log growth decrease (time-kill curve) ([2]; AMB 0.0625 μg/ml, 48 h): −2.57 Log
log growth decrease (time-kill curve) ([2]; AMB 0.125 μg/ml, 0 h): 0.01 Log
log growth decrease (time-kill curve) ([2]; AMB 0.125 μg/ml, 2 h): 0.11 Log
log growth decrease (time-kill curve) ([2]; AMB 0.125 μg/ml, 4 h): −0.07 Log
log growth decrease (time-kill curve) ([2]; AMB 0.125 μg/ml, 6 h): −0.42 Log
log growth decrease (time-kill curve) ([2]; AMB 0.125 μg/ml, 8 h): −0.80 Log
log growth decrease (time-kill curve) ([2]; AMB 0.125 μg/ml, 24 h): −2.28 Log
log growth decrease (time-kill curve) ([2]; AMB 0.125 μg/ml, 48 h): −2.44 Log
log growth decrease (time-kill curve) ([2]; AMB 0.25 μg/ml, 0 h): 0.07 Log
log growth decrease (time-kill curve) ([2]; AMB 0.25 μg/ml, 2 h): 0.10 Log
log growth decrease (time-kill curve) ([2]; AMB 0.25 μg/ml, 4 h): 0.02 Log
log growth decrease (time-kill curve) ([2]; AMB 0.25 μg/ml, 6 h): −0.02 Log
log growth decrease (time-kill curve) ([2]; AMB 0.25 μg/ml, 8 h): 0.02 Log
log growth decrease (time-kill curve) ([2]; AMB 0.25 μg/ml, 24 h): 0.19 Log
log growth decrease (time-kill curve) ([2]; AMB 0.25 μg/ml, 48 h): −2.13 Log
log growth decrease (time-kill curve) ([2]; AMB 0.5 μg/ml, 0 h): 0.05 Log
log growth decrease (time-kill curve) ([2]; AMB 0.5 μg/ml, 2 h): 0.21 Log
log growth decrease (time-kill curve) ([2]; AMB 0.5 μg/ml, 4 h): 0.41 Log
log growth decrease (time-kill curve) ([2]; AMB 0.5 μg/ml, 6 h): 0.86 Log
log growth decrease (time-kill curve) ([2]; AMB 0.5 μg/ml, 8 h): 1.95 Log
log growth decrease (time-kill curve) ([2]; AMB 0.5 μg/ml, 24 h): ≥3 Log
log growth decrease (time-kill curve) ([2]; AMB 0.5 μg/ml, 48 h): ≥3 Log
log growth decrease (time-kill curve) ([2]; AMB 1 μg/ml, 0 h): 0.05 Log
log growth decrease (time-kill curve) ([2]; AMB 1 μg/ml, 2 h): 1.77 Log
log growth decrease (time-kill curve) ([2]; AMB 1 μg/ml, 4 h): ≥3 Log
log growth decrease (time-kill curve) ([2]; AMB 1 μg/ml, 6 h): ≥3 Log
log growth decrease (time-kill curve) ([2]; AMB 1 μg/ml, 8 h): ≥3 Log
log growth decrease (time-kill curve) ([2]; AMB 1 μg/ml, 24 h): ≥3 Log
log growth decrease (time-kill curve) ([2]; AMB 1 μg/ml, 48 h): ≥3 Log
log growth decrease (time-kill curve) ([2]; AMB 2 μg/ml, 0 h): 0.05 Log
log growth decrease (time-kill curve) ([2]; AMB 2 μg/ml, 2 h): ≥3 Log
log growth decrease (time-kill curve) ([2]; AMB 2 μg/ml, 4 h): ≥3 Log
log growth decrease (time-kill curve) ([2]; AMB 2 μg/ml, 6 h): ≥3 Log
log growth decrease (time-kill curve) ([2]; AMB 2 μg/ml, 8 h): ≥3 Log
log growth decrease (time-kill curve) ([2]; AMB 2 μg/ml, 24 h): ≥3 Log
log growth decrease (time-kill curve) ([2]; AMB 2 μg/ml, 48 h): ≥3 Log
log growth decrease (time-kill curve) ([2]; AMB 4 μg/ml, 0 h): 0.06 Log
log growth decrease (time-kill curve) ([2]; AMB 4 μg/ml, 2 h): ≥3 Log
log growth decrease (time-kill curve) ([2]; AMB 4 μg/ml, 4 h): ≥3 Log
log growth decrease (time-kill curve) ([2]; AMB 4 μg/ml, 6 h): ≥3 Log
log growth decrease (time-kill curve) ([2]; AMB 4 μg/ml, 8 h): ≥3 Log
log growth decrease (time-kill curve) ([2]; AMB 4 μg/ml, 24 h): ≥3 Log
log growth decrease (time-kill curve) ([2]; AMB 4 μg/ml, 48 h): ≥3 Log
time at which fungicidal activity is obtained ([2]; time-kill curve, as efficiency starts decreasing): 24 h
MIC [3]: ≥ 2 µg/mL
